Measured values from article PMC10115881, “Disrupting the α-synuclein-ESCRT interaction with a peptide inhibitor mitigates neurodegeneration in preclinical models of Parkinson’s disease” (Nature Communications, 2023).

Assays:
Format in all cases: cell-based, human
[1] = tested on: WT a-syn-mediated cytotoxicity in HEK293 cells; test: Pooled lentiviral 7-mer peptide cytotoxicity screen, WT a-syn + MG132; details: for Reads 0M MG132: Illumina reads, average Phred >30;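 as to Slope Norm Reads: reads normalized to total peptide reads per sample with scalar factor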
Description: (§1) We used a lentiviral library of 50,549 7-mer peptides enriched in PPI motifs[13] on a green fluorescent protein (GFP) scaffold (Fig. 1A). We infected cells in a pooled format and the amino acid sequence of each peptide served as its own barcode. By using a low multiplicity of infection followed by puromycin selection, each infected cell expressed one unique GFP-peptide. We screened for peptides that reduced a-syn-mediated cytotoxicity or a-syn oligomers in parallel (Fig. 1A). To cause cytotoxicity relevant to PD, we induced proteostatic stress in HEK293 cells by inhibiting the proteasome with MG132 and overexpressing human WT a-syn associated with idiopathic PD in one screen or the more toxic mutant A53T a-syn associated with familial PD in a second screen. This combination of a-syn overexpression and pharmacological proteasome inhibition led to death of most cells, with only those that expressed a protective peptide surviving. By extracting genomic DNA from the surviving cells and amplifying the peptide coding sequences, we identified the protective peptides (Fig. 1A). To detect a-syn oligomers, we used a protein fragment complementation assay (PCA) of a-syn oligomerization in HEK293 cells. In this assay, human A53T a-syn was fused to either the C- or N-terminal half of yellow fluorescent protein (YFP). No fluorescence is detectable while a-syn exists in monomers but, when a-syn oligomerizes, the two halves of YFP come in close enough proximity to form a functional, spontaneously fluorescent protein. […] Our screens yielded 10 hits (Table S1). The hit with the most reads (i.e., the most abundant) was the same peptide in all screens: IPIQLKA (named PDpep1) (Table S1). We validated the cytoprotective effects of PDpep1 in HEK293 cells overexpressing WT or A53T a-syn (Figs. 1B, S1A), as well as its ability to reduce WT or A53T a-syn oligomers in a luciferase-based PCA[18]–[20] compared to a scrambled control peptide (Figs. 1C, S1B).
(§2) HEK293T cells (ATCC, CRL-3216) were maintained in DMEM supplemented with 10% FBS and 1% pen/strep/glutamine, and the appropriate selection antibiotics when required. Lentiviruses were made in a 15 cm dish format by transfecting packaging cells (HEK293T) with a three-plasmid system (expression vector, psPAX2 and pMD2.G) and using Polyjet DNA transfection reagent (FroggaBio, SL100688.1). Viral transduction of HEK293T cells were performed with a multiplicity of infection (MOI) of 0.3. Infected cells were selected in puromycin-containing medium to eliminate uninfected cells and three aliquots of cells were collected for sampling of the initial (T0) cell population. Cells were treated with MG132 at concentrations of 0, 10, 25, or 50 µM. For the cell viability screen, surviving cells were collected and gDNA was extracted for identification of peptide inhibitors of cell toxicity. For the inhibition of a-syn aggregation screen, a protein fragment complementation assay (PCA) was used by transfecting cells with split YFP-a-syn constructs following stable expression of the peptides. Cells were sorted based on their YFP fluorescence intensities with a FACSVantage SE cell sorter (BD Bioscience) and gDNA was extracted for identification of peptides.
(§3) Genomic DNA (gDNA) from peptide expressing cells at different time-points was extracted using QIAamp DNA Blood Mini Kit. PCR amplifications of peptides from gDNA in parallel with the lentiviral plasmid library (naïve library) were performed using indexed Illumina PCR primers to incorporate both the Illumina adapter sequences and indexing sequences. Each 50 μl reaction contained 3.2 μg of template, 2× PCR buffer, 2× enhancer solution, 300 μM each dNTP, 900 nM each of Adapter A (5′-[…]-[…]-3′) and Adapter B (5′-[…]-[…]-3′), 1 mM MgSO4, 3.75 units of Platinum Pfx polymerase, and water to 50 μl. […]

A53T a-syn oligomers = test: Split-YFP PCA/FACS screen of A53T a-syn oligomers
Description: as §1, §2
Cells were harvested by trypsin treatment and centrifuged at 500 × g for 5 min. The pellet was resuspended in ice-cold PBS and centrifuged again. The pellet was then resuspended at a concentration of 4 × 10^6 cells/ml in the sorting buffer, which is PBS containing 100 Kunitz DNase I/ml, 10 μg/ml propidium iodide (Sigma), and 2% FBS. The cells were then sent through a 40 μm filter to remove large clumps and loaded into either a FACScan Flow Cytometer (BD Bioscience) for cell analysis or a FACSVantage SE cell sorter (BD Bioscience) for cell sorting. The cells with positive propidium iodide staining (i.e., dead cells) were first eliminated from the analysis. […]

[2] = tested on: A53T a-syn expressing HEK293 cells; test: Cell Titer-Glo cell viability, A53T a-syn expressing cells; details: A53T a-syn cells
Method: Oligonucleotides encoding the specific peptides were synthesized and individually cloned into the pLJM1 nGFP lentiviral vector. HEK293T cells were infected with individual constructs, and cell viability was assessed using Cell Titer-Glo luminescent assay (Promega) at 72 h post infection.
Cells were trypsinized from subconfluent cultures as described earlier, suspended in culture media, and then seeded into triplicate wells of a 96-well plate (100 µl/well) at a density of 1.5 × 10^4 cells per well with standard culture conditions of 5% CO2 at 37 °C. Cells were infected with lentivirus expressing peptide at a MOI of 5 for 72 h or transfected with plasmid for 72 h. Cell Titer-Glo reagent was added to each well (30 µL), according to the manufacturer’s protocol and […].

[3] = tested on: A53T a-syn-mediated cytotoxicity in HEK293 cells; test: Pooled lentiviral 7-mer peptide cytotoxicity screen, A53T a-syn + MG132; details: for Reads 0M MG132: Illumina reads, average Phred >30;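 as to Slope Norm Reads: reads normalized to total peptide reads per sample with scalar factor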
Description: as §1, §2, §3

Row | Substance | Reads 10M MG132 [1] | Reads 25M MG132 [1] | Slope Norm Reads [1] | Reads 0M MG132 [1] | Reads GFP High (A53T a-syn oligomers) | Reads GFP Inter (A53T a-syn oligomers) | Reads GFP Neg (A53T a-syn oligomers) | Reads Ratio (A53T a-syn oligomers) | Reads 10M MG132 [3] | Reads 25M MG132 [3] | Reads 50M MG132 [3] | Slope Norm Reads [3] | Reads 0M MG132 [3] | also measured
1 | AAYNLCA [library 7-mer, WT screen] | 14 | 19 | 0.07 | 1 | – | – | – | – | – | – | – | – | – | –
2 | CFLFQIQ [library 7-mer, oligomers screen] | – | – | – | – | 1 | 0 | 88 | 45.32 | – | – | – | – | – | –
3 | CHMP2B 1-178: shorter truncated version of CHMP2B (amino acids 1–178), implicated in FTD | – | – | – | – | – | – | – | – | – | – | – | – | – | Effect on cell survival/viability [2]: increased toxicity
4 | CKYRSVL [library 7-mer, A53T screen] | – | – | – | – | – | – | – | – | 7 | 11 | 438 | 1.30 | 5 | –
5 | CMVHSAG [library 7-mer, WT screen] | 14 | 33 | 0.08 | 4 | – | – | – | – | – | – | – | – | – | –
6 | DWLMVNL [library 7-mer, WT screen] | 13 | 29 | 0.13 | 1 | – | – | – | – | – | – | – | – | – | –
7 | ECHTKIR [library 7-mer, oligomers screen] | – | – | – | – | 1 | 0 | 76 | 39.21 | – | – | – | – | – | –
8 | EDVNKCV [library 7-mer, A53T screen] | – | – | – | – | – | – | – | – | 6 | 13 | 233 | 0.68 | 6 | –
9 | GAAAGGT [library 7-mer, WT screen] | 10 | 17 | 0.06 | 1 | – | – | – | – | – | – | – | – | – | –
10 | GWTTVRR [library 7-mer, A53T screen] | – | – | – | – | – | – | – | – | 1 | 29 | 322 | 0.94 | 15 | –
11 | LKRDQPV [library 7-mer, oligomers screen] | – | – | – | – | 3 | 0 | 118 | 30.30 | – | – | – | – | – | –
12 | LPASMPC [library 7-mer, WT screen] | 16 | 27 | 0.09 | 2 | – | – | – | – | – | – | – | – | – | –
13 | LPSKIYK [library 7-mer, oligomers screen] | – | – | – | – | 1 | 0 | 57 | 29.53 | – | – | – | – | – | –
14 | LQVGVAV [library 7-mer, WT screen] | 25 | 23 | 0.09 | 1 | – | – | – | – | – | – | – | – | – | –
15 | LSGECVP [library 7-mer, WT screen] | 28 | 28 | 0.07 | 3 | – | – | – | – | – | – | – | – | – | –
16 | MQMKLSQ [library 7-mer, oligomers screen] | – | – | – | – | 1 | 0 | 70 | 36.15 | – | – | – | – | – | –
17 | NNQYSFV [library 7-mer, oligomers screen] | – | – | – | – | 1 | 0 | 58 | 30.04 | – | – | – | – | – | –
18 | PAMQIDG [library 7-mer, A53T screen] | – | – | – | – | – | – | – | – | 20 | 53 | 337 | 0.96 | 32 | –
19 | PLPTGMG [library 7-mer, WT screen] | 3 | 20 | 0.08 | 1 | – | – | – | – | – | – | – | – | – | –
20 | QAELSNS [library 7-mer, A53T screen] | – | – | – | – | – | – | – | – | 8 | 10 | 235 | 0.69 | 6 | –
21 | QSPSSAW [library 7-mer, A53T screen] | – | – | – | – | – | – | – | – | 45 | 59 | 284 | 0.82 | 9 | –
22 | QSVLQQV [library 7-mer, A53T screen] | – | – | – | – | – | – | – | – | 2 | 12 | 282 | 0.82 | 13 | –
23 | QSVVTAP [library 7-mer, A53T screen] | – | – | – | – | – | – | – | – | 6 | 37 | 465 | 1.38 | 8 | –
24 | QVSVAQQ [library 7-mer, A53T screen] | – | – | – | – | – | – | – | – | 13 | 120 | 246 | 0.69 | 45 | –
25 | RAPSCHL [library 7-mer, WT screen] | 13 | 33 | 0.15 | 1 | – | – | – | – | – | – | – | – | – | –
26 | TQKRELT [library 7-mer, oligomers screen] | – | – | – | – | 1 | 0 | 69 | 35.64 | – | – | – | – | – | –
27 | VYLDILG [library 7-mer, oligomers screen] | – | – | – | – | 1 | 0 | 59 | 30.55 | – | – | – | – | – | –
28 | WPRYPHI [library 7-mer, oligomers screen] | – | – | – | – | 1 | 0 | 92 | 47.36 | – | – | – | – | – | –
